{"source": "the supplement of paper PMC11208160", "data": [{"experiment": "recombinant barcode read abundance after kanamycin selection (control-corrected) (log10(CPM+1)); higher = more efficient recombination; sequences stand for … in AGTGCAGAGAAAATCGGCCAGTTTTCTCTGCCTGCAGTCCGCATGCCGT…AGATTTATGCAGCGGACTGCCTTTCTCCCAAAGTGATAAACCGGACAGTATCATGGACCGGTTTTCCCGGTAATCCGTATTTGCAAGGTTGGTTTCACT; site = the 11-nt target", "summary_of_the_method": "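In E. coli, a pooled library matched targets to IS621 bridge RNA target-binding loops and was introduced alongside a donor plasmid. Cells went onto chloramphenicol/ampicillin/kanamycin with 0.1 mM IPTG or onto chloramphenicol/ampicillin LB agar as control, in duplicate. Recombination efficiency, from recombinant-junction barcodes as counts per million, is averaged and control-corrected. It is reported as log10(CPM+1).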", "values": [{"sequence": "CAGACGCCTTGGGTTCTAACCTGTTGCAG (site CACACTCCTCT)", "recombinant barcode read abundance (log10)": 0.039}, {"sequence": "CAGACGCCTTGGGTTCTAACCTGTTGCAG (site CAGACGCCTCT)", "recombinant barcode read abundance (log10)": 1.38}, {"sequence": "CAGACTCCTTGGGTTCTAACCTGTTGCCT (site CAGACTCCTAG)", "recombinant barcode read abundance (log10)": 0.214}, {"sequence": "CAGACTCCTTGGGTTCTAACCTGTTGCCT (site TAGACTACTAG)", "recombinant barcode read abundance (log10)": 0.186}, {"sequence": "CAGAGCACTTGGGTTCTAACCTGTTGCCT (site AAGAGCACTAG)", "recombinant barcode read abundance (log10)": 0.107}, {"sequence": "CAGAGCACTTGGGTTCTAACCTGTTGCCT (site CAGAGCACTAG)", "recombinant barcode read abundance (log10)": 1.2}, {"sequence": "CAGAGCACTTGGGTTCTAACCTGTTGCCT (site GAGAGCACTAG)", "recombinant barcode read abundance (log10)": 0.185}, {"sequence": "CAGAGCACTTGGGTTCTAACCTGTTGCCT (site TAGAGCACTAG)", "recombinant barcode read abundance (log10)": 0.138}, {"sequence": "CAGAGTACTTGGGTTCTAACCTGTTGCCT (site CACAGTGCTAG)", "recombinant barcode read abundance (log10)": 0.0547}, {"sequence": "CAGAGTACTTGGGTTCTAACCTGTTGCCT (site CAGAGTACTAG)", "recombinant barcode read abundance (log10)": 0.216}, {"sequence": "CAGAGTCCTTGGGTTCTAACCTGTTGCTT (site CAGAGTCCTAA)", "recombinant barcode read abundance (log10)": 1.59}, {"sequence": "CAGAGTCCTTGGGTTCTAACCTGTTGCTT (site CATAGTCCTAG)", "recombinant barcode read abundance (log10)": 0.105}, {"sequence": "CAGCACCCTTGGGTTCTAACCTGTTGCGG (site CAGCACCCTCC)", "recombinant barcode read abundance (log10)": 0.515}, {"sequence": "CAGCACCCTTGGGTTCTAACCTGTTGCGG (site CGGTACCCTCC)", "recombinant barcode read abundance (log10)": 0.13}, {"sequence": "CAGCAGCCTTGGGTTCTAACCTGTTGCTT (site CAGCAGCCTAA)", "recombinant barcode read abundance (log10)": 0.742}, {"sequence": "CAGCAGCCTTGGGTTCTAACCTGTTGCTT (site TCCGTTACTCG)", "recombinant barcode read abundance (log10)": 0.0126}, {"sequence": "CAGCATCCTTGGGTTCTAACCTGTTGCAG (site ATCACGTCTAG)", "recombinant barcode read abundance (log10)": 0.157}, {"sequence": "CAGCATCCTTGGGTTCTAACCTGTTGCAG (site CAGCATCCTCT)", "recombinant barcode read abundance (log10)": 1.11}, {"sequence": "CAGCGGCCTTGGGTTCTAACCTGTTGCCT (site CAGAGGCCTAG)", "recombinant barcode read abundance (log10)": 0.191}, {"sequence": "CAGCGGCCTTGGGTTCTAACCTGTTGCCT (site CAGCGGCCTAG)", "recombinant barcode read abundance (log10)": 0.288}, {"sequence": "CAGCGGCCTTGGGTTCTAACCTGTTGCCT (site CAGGGGCCTAG)", "recombinant barcode read abundance (log10)": 0.121}, {"sequence": "CAGCGGCCTTGGGTTCTAACCTGTTGCCT (site CAGTGGCCTAG)", "recombinant barcode read abundance (log10)": 0.718}, {"sequence": "CAGGACCCTTGGGTTCTAACCTGTTGCCT (site CAAGACCCTAG)", "recombinant barcode read abundance (log10)": 1.93}, {"sequence": "CAGGACCCTTGGGTTCTAACCTGTTGCCT (site CACGACCCTAG)", "recombinant barcode read abundance (log10)": 0.437}, {"sequence": "CAGGACCCTTGGGTTCTAACCTGTTGCCT (site CAGGACCCTAG)", "recombinant barcode read abundance (log10)": 2.18}, {"sequence": "CAGGACCCTTGGGTTCTAACCTGTTGCCT (site CATGACCCTAG)", "recombinant barcode read abundance (log10)": 0.409}, {"sequence": "CAGGATGCTTGGGTTCTAACCTGTTGCCT (site CAAGATGCTAG)", "recombinant barcode read abundance (log10)": 0.731}, {"sequence": "CAGGATGCTTGGGTTCTAACCTGTTGCCT (site CACGATGCTAG)", "recombinant barcode read abundance (log10)": 0.0431}, {"sequence": "CAGGATGCTTGGGTTCTAACCTGTTGCCT (site CAGGATGCTAG)", "recombinant barcode read abundance (log10)": 1.35}, {"sequence": "CAGGATGCTTGGGTTCTAACCTGTTGCCT (site CATGATGCTAG)", "recombinant barcode read abundance (log10)": 0.0284}, {"sequence": "CAGGCGTCTTGGGTTCTAACCTGTTGCAC (site CAGGCGTCTGT)", "recombinant barcode read abundance (log10)": 1.12}, {"sequence": "CAGGCGTCTTGGGTTCTAACCTGTTGCAC (site GAGGGGTCTGT)", "recombinant barcode read abundance (log10)": 0.142}, {"sequence": "CAGGGCCCTTGGGTTCTAACCTGTTGCCT (site AAGGGCCCTAG)", "recombinant barcode read abundance (log10)": 0.329}, {"sequence": "CAGGGCCCTTGGGTTCTAACCTGTTGCCT (site CAGGGCCCTAG)", "recombinant barcode read abundance (log10)": 2.14}, {"sequence": "CAGGGCCCTTGGGTTCTAACCTGTTGCCT (site GAGGGCCCTAG)", "recombinant barcode read abundance (log10)": 0.527}, {"sequence": "CAGGGCCCTTGGGTTCTAACCTGTTGCCT (site TAGGGCCCTAG)", "recombinant barcode read abundance (log10)": 0.397}, {"sequence": "CAGGGGACTTGGGTTCTAACCTGTTGCCA (site CAGGGGACTTG)", "recombinant barcode read abundance (log10)": 1.04}, {"sequence": "CAGGGGACTTGGGTTCTAACCTGTTGCCA (site CCGTGGACTTG)", "recombinant barcode read abundance (log10)": 0.217}, {"sequence": "CAGGGGCCTTGGGTTCTAACCTGTTGCCT (site CAGAGGCCTAG)", "recombinant barcode read abundance (log10)": 0.0366}, {"sequence": "CAGGGGCCTTGGGTTCTAACCTGTTGCCT (site CAGCGGCCTAG)", "recombinant barcode read abundance (log10)": 0.187}, {"sequence": "CAGGGGCCTTGGGTTCTAACCTGTTGCCT (site CAGGGGCCTAG)", "recombinant barcode read abundance (log10)": 1.97}, {"sequence": "CAGGGGCCTTGGGTTCTAACCTGTTGCCT (site CAGTGGCCTAG)", "recombinant barcode read abundance (log10)": 0.185}, {"sequence": "CAGGTACCTTGGGTTCTAACCTGTTGCAG (site CAGGTACCTAT)", "recombinant barcode read abundance (log10)": 0.368}, {"sequence": "CAGGTACCTTGGGTTCTAACCTGTTGCAG (site CAGGTACCTCT)", "recombinant barcode read abundance (log10)": 3.12}, {"sequence": "CAGGTGCCTTGGGTTCTAACCTGTTGCCT (site CAGGTGCCTAG)", "recombinant barcode read abundance (log10)": 2.25}, {"sequence": "CAGGTGCCTTGGGTTCTAACCTGTTGCCT (site CCGGTGCCTAG)", "recombinant barcode read abundance (log10)": 0.216}, {"sequence": "CAGGTGCCTTGGGTTCTAACCTGTTGCCT (site CGGGTGCCTAG)", "recombinant barcode read abundance (log10)": 0.122}, {"sequence": "CAGGTGCCTTGGGTTCTAACCTGTTGCCT (site CTGGTGCCTAG)", "recombinant barcode read abundance (log10)": 0.526}, {"sequence": "CAGTAGTCTTGGGTTCTAACCTGTTGCCT (site CAGTAATCTAG)", "recombinant barcode read abundance (log10)": 0.579}, {"sequence": "CAGTAGTCTTGGGTTCTAACCTGTTGCCT (site CAGTACTCTAG)", "recombinant barcode read abundance (log10)": 0.155}, {"sequence": "CAGTAGTCTTGGGTTCTAACCTGTTGCCT (site CAGTAGTCTAG)", "recombinant barcode read abundance (log10)": 1.07}, {"sequence": "CAGTAGTCTTGGGTTCTAACCTGTTGCCT (site CAGTATTCTAG)", "recombinant barcode read abundance (log10)": 0.0913}, {"sequence": "CAGTATTCTTGGGTTCTAACCTGTTGCCT (site CAGTAATCTAG)", "recombinant barcode read abundance (log10)": 0.0186}, {"sequence": "CAGTATTCTTGGGTTCTAACCTGTTGCCT (site CAGTACTCTAG)", "recombinant barcode read abundance (log10)": 0.116}, {"sequence": "CAGTATTCTTGGGTTCTAACCTGTTGCCT (site CAGTAGTCTAG)", "recombinant barcode read abundance (log10)": 0.0496}, {"sequence": "CAGTATTCTTGGGTTCTAACCTGTTGCCT (site CAGTATTCTAG)", "recombinant barcode read abundance (log10)": 0.702}, {"sequence": "CAGTCTACTTGGGTTCTAACCTGTTGCGT (site CAGTCTACTAC)", "recombinant barcode read abundance (log10)": 0.308}, {"sequence": "CAGTCTACTTGGGTTCTAACCTGTTGCGT (site TCAAGCCCTCT)", "recombinant barcode read abundance (log10)": 0.292}, {"sequence": "CAGTCTGCTTGGGTTCTAACCTGTTGCCT (site CAATCTGCTAG)", "recombinant barcode read abundance (log10)": 0.141}, {"sequence": "CAGTCTGCTTGGGTTCTAACCTGTTGCCT (site CACTCTGCTAG)", "recombinant barcode read abundance (log10)": 0.0321}, {"sequence": "CAGTCTGCTTGGGTTCTAACCTGTTGCCT (site CAGTCTGCTAG)", "recombinant barcode read abundance (log10)": 0.512}, {"sequence": "CAGTCTGCTTGGGTTCTAACCTGTTGCCT (site CATTCTGCTAG)", "recombinant barcode read abundance (log10)": 0.182}, {"sequence": "CAGTTAGCTTGGGTTCTAACCTGTTGCCT (site CAGTTAGCTAG)", "recombinant barcode read abundance (log10)": 0.642}, {"sequence": "CAGTTAGCTTGGGTTCTAACCTGTTGCCT (site CAGTTCGCTAG)", "recombinant barcode read abundance (log10)": 0.182}, {"sequence": "CAGTTAGCTTGGGTTCTAACCTGTTGCCT (site CAGTTGGCTAG)", "recombinant barcode read abundance (log10)": 0.0405}, {"sequence": "CAGTTAGCTTGGGTTCTAACCTGTTGCCT (site CAGTTTGCTAG)", "recombinant barcode read abundance (log10)": 0.192}]}]}
